Data reported in patent EP4748373A1, “PHARMACEUTICAL COMPOSITION CONTAINING HETEROCYCLIC COMPOUND” (Sagimet Biosciences Inc., priority 2023, dated 2025).
Converted amounts (≈) assume the structure as drawn.

Test: equilibrium solubility experiments in buffer media at different pH conditions
Format: physicochemical
Settings: for solubility at 1 h / solubility at 22 h: buffer media, thermodynamic from solid
Description: Additionally, the present invention conducted equilibrium solubility experiments of the monohydrate crystalline API, amorphous API, and hot-melt extrudate dispersion intermediate in buffer media at different pH conditions. Table 3. Summary of equilibrium solubility (µg/ml) of monohydrate crystalline API, amorphous API, and hot-melt extrudate dispersion intermediate

[1] = pH 1.2, simulated gastric fluid, pH 1.2 buffer
[2] = pH 2, simulated gastric fluid, pH 2.0 buffer
[3] = pH 4, aqueous buffer, pH 4.0 buffer
[4] = pH 4.5, aqueous buffer, pH 4.5 buffer
[5] = pH 5, aqueous buffer, pH 5.0 buffer
[6] = pH 6, aqueous buffer, pH 6.0 buffer
[7] = pH 6.8, aqueous buffer, pH 6.8 buffer
[8] = pH 7.5, aqueous buffer, pH 7.5 buffer

Cc1nnc(-c2cc(C(=O)N3CCC(c4ccc(C#N)cc4)CC3)c(C)cc2C2CCC2)[nH]1 [4-[1-[4-cyclobutyl-2-methyl-5-(5-methyl-1H-1,2,4-triazol-3-yl)benzoyl]piperidin-4-yl]benzonitrile]
solubility at 1 h [1]: 30.3 µg/mL (≈ 68.9 µM) | solubility at 22 h [1]: 27.2 µg/mL (≈ 61.8 µM) | solubility at 1 h [2]: 3.57 µg/mL (≈ 8.12 µM) | solubility at 22 h [2]: 3.22 µg/mL (≈ 7.33 µM) | solubility at 1 h (pH 3, aqueous buffer, pH 3.0 buffer): 1.07 µg/mL (≈ 2.43 µM) | solubility at 1 h [3]: 0.68 µg/mL (≈ 1.55 µM) | solubility at 22 h [3]: 0.6 µg/mL (≈ 1.36 µM) | solubility at 1 h [4]: 0.6 µg/mL (≈ 1.36 µM) | solubility at 22 h [4]: 0.59 µg/mL (≈ 1.34 µM) | solubility at 1 h [5]: 0.47 µg/mL (≈ 1.07 µM) | solubility at 22 h [5]: 0.51 µg/mL (≈ 1.16 µM) | solubility at 1 h [6]: 0.5 µg/mL (≈ 1.14 µM) | solubility at 22 h [6]: 0.45 µg/mL (≈ 1.02 µM) | solubility at 1 h [7]: 0.44 µg/mL (≈ 1 µM) | solubility at 22 h [7]: 0.42 µg/mL (≈ 0.955 µM) | solubility at 1 h [8]: 0.42 µg/mL (≈ 0.955 µM) | solubility at 22 h [8]: 0.43 µg/mL (≈ 0.978 µM)

Cc1nnc(-c2cc(C(=O)N3CCC(c4ccc(C#N)cc4)CC3)c(C)cc2C2CCC2)[nH]1 [Compound of formula (I) (amorphous API), 4-[1-[4-cyclobutyl-2-methyl-5-(5-methyl-1H-1,2,4-triazol-3-yl)benzoyl]piperidin-4-yl]benzonitrile]
1-h solubility (pH 1.2 buffer): 50.93 µg/mL | 22-h solubility (pH 1.2 buffer): 48.62 µg/mL | 1-h solubility (pH 2.0 buffer): 4.52 µg/mL | 22-h solubility (pH 2.0 buffer): 4.45 µg/mL | 1-h solubility (pH 3.0 buffer): 2.14 µg/mL | 22-h solubility (pH 3.0 buffer): 2.14 µg/mL | 1-h solubility (pH 4.0 buffer): 0.76 µg/mL | 22-h solubility (pH 4.0 buffer): 0.74 µg/mL | 1-h solubility (pH 4.5 buffer): 0.65 µg/mL | 22-h solubility (pH 4.5 buffer): 0.57 µg/mL | 1-h solubility (pH 5.0 buffer): 0.51 µg/mL | 22-h solubility (pH 5.0 buffer): 0.42 µg/mL | 1-h solubility (pH 6.0 buffer): 0.46 µg/mL | 22-h solubility (pH 6.0 buffer): 0.44 µg/mL | 1-h solubility (pH 6.8 buffer): 0.46 µg/mL | 22-h solubility (pH 6.8 buffer): 0.45 µg/mL | 1-h solubility (pH 7.5 buffer): 0.54 µg/mL | 22-h solubility (pH 7.5 buffer): 0.48 µg/mL

Cc1nnc(-c2cc(C(=O)N3CCC(c4ccc(C#N)cc4)CC3)c(C)cc2C2CCC2)[nH]1 [Compound of formula (I) (monohydrate crystalline form)] [4-[1-[4-cyclobutyl-2-methyl-5-(5-methyl-1H-1,2,4-triazol-3-yl)benzoyl]piperidin-4-yl]benzonitrile]
22-h solubility (pH 3.0 buffer): 0.97 µg/mL
